pIC50, pKi: −log10 of the molar value.
Tests used:
[1] = molecular target: T1, Leukotriene B4 receptor 1 (Homo sapiens, UniProt Q15722); assay: Binding affinity against LTB4 receptors in human PMNs
[2] = molecular target: T1, Leukotriene B4 receptor 1; assay: Inhibitory concentration against LTB4 receptors in human PMNs
Mus musculus [3] = organism: Mus musculus; assay: Inhibition of LTB4-induced PMN infiltration at 250 ng/mL in mouse; assay type: functional
Mus musculus [4] = assay: Effective dose for edematous response after administration of 1 mg of arachidonic acid in mouse ear; assay type: functional
Homo sapiens = organism: Homo sapiens; assay: Inhibitory concentration against LTB4 induced degranulation in human PMNs; assay type: functional
Mus musculus [5] = assay: Effective dose for neutrophil infiltration after administration of 1 mg of arachidonic acid in mouse ear; assay type: functional

T1 sequence (Q15722 whole entry): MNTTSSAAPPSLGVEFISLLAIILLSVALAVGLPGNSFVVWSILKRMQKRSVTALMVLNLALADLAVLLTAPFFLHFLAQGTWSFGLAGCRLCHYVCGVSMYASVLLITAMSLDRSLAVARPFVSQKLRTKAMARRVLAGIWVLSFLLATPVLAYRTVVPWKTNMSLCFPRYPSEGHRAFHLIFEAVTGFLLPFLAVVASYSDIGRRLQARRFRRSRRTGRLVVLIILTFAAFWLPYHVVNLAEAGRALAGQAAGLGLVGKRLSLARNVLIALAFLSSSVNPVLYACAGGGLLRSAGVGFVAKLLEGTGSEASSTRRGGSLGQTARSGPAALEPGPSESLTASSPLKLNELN

pKi [1] | pIC50 [2] | pIC50 (Homo sapiens) | SMILES | ED50 (Mus musculus [3]) [mg/kg] | ED50 (Mus musculus [4]) [mg ear-1] | ED50 (Mus musculus [5]) [mg ear-1]
6.55 |  |  | CCCCCCCCCCOc1ccc(CC(O)c2cccc(C(=O)O)c2)nc1/C=C/C(=O)O (configuration not stated) |  |  | 
8.15 | 6.88 | 6.57 | COc1ccc(CCCCCCCCOc2ccc(CSCc3cccc(C(=O)O)c3)nc2/C=C/C(=O)O)cc1 | 7.1 | 0.58 | 0.39

Reference: ChEMBL document CHEMBL1127025, “(E)-3-[[[[6-(2-carboxyethenyl)-5-[[8-(4- methoxyphenyl)octyl]oxy]-2-pyridinyl]-methyl]thio]methyl]benzoic acid: a novel high-affinity leukotriene B4 receptor antagonist” (J Med Chem, 1993)
